# Where two headings read alike, the source gives them in different places.
# Experiments:
# hsHexB [1] = molecular target: T1, hsHexB (Homo sapiens, UniProt P07686); test: Inhibitory potency assay, end-point, 4-MU-GlcNAc substrate, pH 4.0; format: biochemical; conditions: for Inhibition potency against hsHexB (in words): each compound at 20 µM, Figure 3; for Ki: 4-MU-GlcNAc, pH 4.0, 30 °C, 30 min, read-out: Ki against hsHexB
# T1 construct: His6; made in house; host or cells: Pichia pastoris GS115 (pPIC9 vector)
# T1 sequence (P07686 122-556): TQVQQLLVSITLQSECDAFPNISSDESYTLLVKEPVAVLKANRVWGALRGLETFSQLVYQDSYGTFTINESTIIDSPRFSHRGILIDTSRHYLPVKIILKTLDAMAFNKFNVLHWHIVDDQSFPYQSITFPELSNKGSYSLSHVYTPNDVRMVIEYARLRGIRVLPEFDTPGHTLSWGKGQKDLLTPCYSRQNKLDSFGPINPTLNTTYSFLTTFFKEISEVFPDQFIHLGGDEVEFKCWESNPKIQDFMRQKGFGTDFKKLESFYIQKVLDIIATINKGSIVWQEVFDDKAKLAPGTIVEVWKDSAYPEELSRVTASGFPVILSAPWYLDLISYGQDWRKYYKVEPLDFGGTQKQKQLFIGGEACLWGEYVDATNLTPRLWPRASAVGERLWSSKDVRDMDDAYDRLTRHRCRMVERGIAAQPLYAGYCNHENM
# Protocol: (§1) Gene encoding hsHexB, which was engineered to contain a His6-tagged fusion protein, was cloned into pPIC9 expression vector (Invitrogen, Carlsbad, CA, USA), and subsequently transformed into Pichia pastoris GS115 (Invitrogen, Carlsbad, CA, USA) by electroporation. The cells were first cultured in BMGY broth (1% yeast extract, 1% glycerol, 2% peptone, 0.2% biotin, 1.34% yeast nitrogen, 0.1 M potassium phosphate, pH 6.0) at 30 °C. Methanol was added into the culture daily at a final concentration of 1% (v/v). When OD600 value reached 2.0 (after ∼120 h), the cells were harvested by centrifugation at 6000g for 10 min. While the pellet was resuspended in BMMY broth (1% yeast extract, 1% methanol, 2% peptone, 0.2% biotin, 1.34% yeast nitrogen, 0.1 M potassium phosphate, pH 6.0), the supernatant was subjected to ammonium sulfate precipitation (75% saturation) at 4 °C, in which the precipitate was further resuspended in distilled water and then desalted in buffer A (20 mM sodium phosphate, 0.5 M sodium chloride, pH 7.4). Subsequently, the resuspension solution was centrifuged at 17,000g for 30 min at 4 °C and passed through a 0.2-µm filter prior to loading onto a 5-ml HisTrap FF affinity column (GE Healthcare, Chicago, IL, USA), which was pre-equilibrated with buffer A. To remove nonspecific binding proteins, the column was sequentially washed with buffer A-containing 20 mM imidazole and buffer A-containing 50 mM imidazole. Finally, the target protein was eluted with buffer B (20 mM sodium phosphate, 0.5 M sodium chloride, 150 mM imidazole, pH 7.4). Purity of the protein was further analyzed by SDS–PAGE. hOGA was overexpressed in Escherichia coli BL21(DE3) and purified as described previously.
# (§2) Potencies of hsHexB and hOGA were assayed by end-point experiment, in which 4-methylumbelliferyl N-acetyl-β-D-glucosaminide (4-MU-GlcNAc; Sigma, St. Louis, MO, USA) was used as a substrate. Various concentrations of inhibitors and substrates (50 µM, 25 µM, and 12.5 µM) were mixed with Britton-Robinson buffer (hsHexB, pH 4.0; hOGA, pH 6.0), dimethylsulfoxide at a final concentration of 2%, enzyme, and 40 µM 4-MU-GlcNAc in a reaction of 100-µl final volume, and incubated at 30 °C for 30 min. Then, the enzymatic reaction was terminated by the addition of 100 µl of 0.5 M sodium carbonate solution. The fluorescence of the released 4-methylumbelliferone was quantified (excitation at 366 nm, emission at 445 nm) on a Varioskan Flash microplate reader (Thermo Fisher Scientific, Waltham, MA, USA). To determine the inhibition constant (Ki), the reciprocal plots of 1/velocity versus inhibitor were constructed. Data analysis was performed using Graph Pad Prism software (Graph Pad Software Inc., San Diego, CA, USA).
# hsHexA = system: hsHexA; set-up: method as in PMID 17317569; conditions: read-out: IC50 against hsHexA; cited from earlier work
# [2] = system: GH20 and GH84 β-N-acetylhexosaminidases; set-up: method as in PMID 22280348, PMID 23688083; conditions: cited from earlier work
# hsHexB [3] = molecular target: T1, hsHexB; set-up: method as in PMID 20187655; conditions: cited from earlier work
# hsHex = molecular target: hsHex; set-up: method as in PMID 24900704; conditions: read-out: Ki against hsHex; cited from earlier work
# hOGA = molecular target: T2, hOGA (Homo sapiens, UniProt O60502); test: Inhibitory potency assay, end-point, 4-MU-GlcNAc substrate, pH 6.0; format: biochemical; conditions: for Ki: 4-MU-GlcNAc, pH 6.0, 30 °C, 30 min, read-out: Ki against hOGA; for Inhibition potency against hOGA (in words): each compound at 20 µM, Figure 3
# T2 construct: made in house; host or cells: Escherichia coli BL21(DE3)
# T2 sequence (O60502 1-916): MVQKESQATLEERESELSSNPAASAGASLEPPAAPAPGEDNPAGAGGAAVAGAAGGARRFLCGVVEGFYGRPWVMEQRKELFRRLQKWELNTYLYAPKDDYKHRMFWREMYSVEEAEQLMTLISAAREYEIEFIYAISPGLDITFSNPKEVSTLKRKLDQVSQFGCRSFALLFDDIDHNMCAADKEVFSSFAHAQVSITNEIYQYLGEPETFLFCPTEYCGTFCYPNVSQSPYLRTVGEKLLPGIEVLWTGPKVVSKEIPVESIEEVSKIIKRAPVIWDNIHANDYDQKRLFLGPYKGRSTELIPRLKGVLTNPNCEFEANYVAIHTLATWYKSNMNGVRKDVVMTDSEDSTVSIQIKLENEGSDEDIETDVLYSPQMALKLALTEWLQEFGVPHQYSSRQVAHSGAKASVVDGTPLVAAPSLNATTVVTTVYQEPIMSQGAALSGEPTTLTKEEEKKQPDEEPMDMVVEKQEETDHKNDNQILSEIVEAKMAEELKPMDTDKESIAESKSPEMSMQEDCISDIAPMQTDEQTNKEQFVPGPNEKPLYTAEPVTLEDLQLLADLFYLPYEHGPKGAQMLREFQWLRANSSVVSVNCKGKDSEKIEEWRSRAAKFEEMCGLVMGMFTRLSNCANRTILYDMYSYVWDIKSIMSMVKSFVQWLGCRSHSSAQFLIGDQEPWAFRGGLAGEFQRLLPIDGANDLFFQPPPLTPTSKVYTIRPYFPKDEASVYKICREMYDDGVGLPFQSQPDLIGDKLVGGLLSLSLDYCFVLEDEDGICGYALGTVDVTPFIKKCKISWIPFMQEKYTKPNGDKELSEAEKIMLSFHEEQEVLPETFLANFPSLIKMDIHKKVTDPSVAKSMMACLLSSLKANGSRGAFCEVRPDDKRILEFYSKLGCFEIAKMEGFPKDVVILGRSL
# Protocol: as §1, §2
# [4] = molecular target: GH20 insect β-N-acetylhexosaminidase OfHex1; set-up: method as in PMID 25155420; conditions: read-out: Ki against OfHex1; cited from earlier work
compound,measurement,setting,value
"2-[2-[2-[(2-acetamido-β-D-glucopyranosyl)thio]ethylamino]ethyl]-1H-benzo[de] isoquinoline-1,3(2H)-dione [compound 15a]",Inhibition potency against hsHexB (in words),hsHexB [1],highest potencies
O=C1c2cccc3cccc(c23)C(=O)N1CCNCCN1C(=O)c2cccc3cccc(c23)C1=O [M-31850],IC50,hsHexA,6 µM
CC1=N[C@@H]2[C@@H](O)[C@H](O)[C@@H](CO)O[C@@H]2S1 [NAG-thiazoline],Selectivity between GH20 and GH84 β-N-acetylhexosaminidases,[2],non-selectivity
CC(=O)N[C@H]1c2nc(CC(=O)O)cn2[C@H](CO)[C@H](O)[C@@H]1O [Nagstatin],Selectivity between GH20 and GH84 β-N-acetylhexosaminidases,[2],non-selectivity
CC(=O)N[C@H]1/C(=N/OC(=O)Nc2ccccc2)O[C@H](CO)[C@@H](O)[C@@H]1O [PUGNAc],Selectivity between GH20 and GH84 β-N-acetylhexosaminidases,[2],non-selectivity
COc1ccc(CN(CCCCCCCN2C[C@H](NC(C)=O)[C@@H](O)[C@H](O)[C@H]2CO)Cc2ccc(OC)cc2)cc1 [compound 4 (5)],Selectivity for hsHexB toward GH84 hOGA,hsHexB [3],"250,000 fold"
same,Ki,hsHexB [3]; read-out: Ki against hsHexB,0.00069 µM
COc1ccc(CNCCN2C(=O)c3cccc4cccc(c34)C2=O)cc1 [compound 7a (7)],Ki,hsHex,0.63 µM
CC(=O)N[C@@H]1[C@@H](O)[C@H](O)[C@@H](CO)O[C@H]1SCCNCCCN1C(=O)c2cccc3cccc(c23)C1=O [compound 15b],Ki,hsHexB [1]; Dixon plots,30.4 µM
same,Type of inhibition of hOGA,"hOGA; Dixon plots, Figure 4B",competitive inhibitors
same,Ki,hOGA; Dixon plots,3.76 µM
same,Inhibition potency against hOGA (in words),hOGA,highest potency
same,melting point,,218 to 220 °C
CC(=O)N[C@@H]1[C@@H](O)[C@H](O)[C@@H](CO)O[C@H]1SCCCNCCN1C(=O)c2cccc3cccc(c23)C1=O [compound 15d],Inhibition potency against hsHexB (in words),hsHexB [1],highest potencies
same,melting point,,230 to 232 °C
CC(=O)N[C@@H]1[C@@H](O)[C@H](O)[C@@H](CO)O[C@H]1SCCCCCNCCN1C(=O)c2cccc3cccc(c23)C1=O [compound 15g],Inhibition potency against hsHexB (in words),hsHexB [1],highest potencies
CC(=O)N[C@@H]1[C@@H](O)[C@H](O)[C@@H](CO)O[C@H]1SCCCCCCNCCN1C(=O)c2cccc3cccc(c23)C1=O [compound 15j],Type of inhibition of hsHexB,"hsHexB [1]; Dixon plots, Figure 4A",competitive inhibitors
same,Ki,hsHexB [1]; Dixon plots,0.91 µM
same,Inhibition potency against hsHexB (in words),hsHexB [1],highest potencies
same,Ki,hOGA; Dixon plots,> 100 µM
CC(=O)N[C@@H]1[C@@H](O)[C@H](O)[C@@H](CO)O[C@H]1SCCCCCCNCCCN1C(=O)c2cccc3cccc(c23)C1=O [compound 15k],Inhibition potency against hsHexB (in words),hsHexB [1],considerably decreased
CC(=O)N[C@@H]1[C@@H](O)[C@H](O)[C@@H](CO)O[C@H]1SCCCCCCNCCCCN1C(=O)c2cccc3cccc(c23)C1=O [compound 15l],Inhibition potency against hsHexB (in words),hsHexB [1],considerably decreased
"CC(=O)N[C@@H]1[C@@H](O)[C@H](O)[C@@H](CO)O[C@H]1SCCCCS[C@@H]1O[C@H](CO)[C@@H](O)[C@H](O)[C@H]1NC(C)=O [compound 17, 1,4-bis[(2-acetamido-2-deoxy-β-D-glucopyranosyl)thio] butane]",Inhibition potency against hsHexB (in words),hsHexB [1],hardly showed activity
same,Inhibition potency against hOGA (in words),hOGA,hardly showed activity
same,melting point,,236 to 238 °C
Cc1nnc(CNCCN2C(=O)c3cccc4cccc(c34)C2=O)s1 [compound Q1],Ki,[4],4.28 µM

# Reference: PMC6009855, “Design and synthesis of naphthalimide group-bearing thioglycosides as novel β-N-acetylhexosaminidases inhibitors” (Journal of Enzyme Inhibition and Medicinal Chemistry, 2018)
